Laboratory results published in patent US20250320557A1, “USE OF ABCF1 IN METHODS OF DIAGNOSING AND MONITORING INFLAMMATORY AND/OR AUTOIMMUNE DISEASE” (MYND Life Sciences Inc., priority 2021, published 2025).

Key:
ABCF1 [1] = settings: peripheral blood mononuclear cells of patients responding to treatment; cited from earlier work
IL-4 = test: real time RT-PCR for IL-4 in RAW macrophages treated with Escitalopram; assay type: cell-based; settings: macrophage cell line (RAW); 0.3 mM Escitalopram, 1 hour; normalized to housekeeping gene, DMSO control
Experimental: (§1) FIG. 1 illustrates that Escitalopram induces ABCF1 in a Macrophage cell line: RAW macrophages were plated at 1×10^5 cells/well and cultured for 2 days. The cells were incubated with 0.3 mM Escitalopram for 1 hour, and then harvested for total RNA, which was extracted for real time RT-PCR specific for ABCF1 and IL-4. CT values were normalized with CT value for the housekeeping gene from the DMSO control. The difference in the expression after drug treatment is consistent with polarization towards an M2-like phenotype (data were consistent in 3 separate experiments).

ABCF1 [2] = test: real time RT-PCR for ABCF1 in RAW macrophages treated with Escitalopram; assay type: cell-based; settings: 0.3 mM Escitalopram, 1 hour
Experimental: as §1

ABCF1 [3] = test: qPCR of ABCF1 transcription in macrophage cell line RAW264.7 (dose response / time course); assay type: cell-based; settings: 10 nM, 100 nM, 500 nM, 2 hours, normalized against GAPDH
Experimental: FIG. 3 illustrates the effect of psylocibin, psylocin and their analogs on ABCF1 transcription in a macrophage cell line. Briefly, the Macrophage cell line RAW264.7 (ATCC) were grown to 80% confluency in growth media (DMEM+ 10% FBS+ glutamine). Dilutions of psylocibin, psylocin and their analogs were made at desired final concentrations for a Dose response experiment. The concentrations' used for this experiment are: 10 nM, 100 nM, 500 nM for Psilocin, Psylocibin, 4-Acetoxy-N, N-dimthyltryptamine, O-Acetyl Psilocin Fumerate, and 4-acetoxyindole. The cells were incubated for 2 hours and then harvested for total RNA, which was extracted for real time RT-PCR specific for ABCF1. Untreated cells were used as negative control and Escitalopram at 0.3 mM was used as a positive control to activate ABCF1 expression for all the experiments. ES=escitalopram; PSYB=Psylocibin; PSIC=Psilocin; DMT=4-Acetoxy-N, N-dimthyltryptamine; APF=O-Acetyl Psilocin Fumerate, and AOI=4-acetoxyindole.
• 1. Macrophage cell line RAW264.7 (ATCC) were grown to 80% confluency in growth media (DMEM+10% FBS+glutamine). • 2. Dilutions of the drugs were made at desired final concentrations for a Dose response experiment. […]
• 1. […] Normalized against the expression level of GAPDH, the fold change expression level of ABCF1 was calculated and tabulated for all treatment conditions.

SMILES	ABCF1 transcription in PBMCs (ABCF1 [1])	induction of IL-4 (IL-4)	ABCF1 induction (in words) (ABCF1 [2]; RAW macrophages)	induction of ABCF1 (ABCF1 [2]; macrophage cell line (RAW), normalized to housekeeping gene, DMSO control)	effect on ABCF1 transcription (ABCF1 [3])
CN(C)CCC[C@@]1(c2ccc(F)cc2)OCc2cc(C#N)ccc21 [Escitalopram]	increased the transcription of a single gene: ABCF1	approximately 5 fold	induces ABCF1	approximately 20 fold	–
CN(C)CCc1c[nH]c2cccc(OP(=O)(O)O)c12 [psylocibin, Psylocibin]	–	–	–	–	upregulate ABCF1 transcription
CN(C)CCc1c[nH]c2cccc(O)c12 [psylocin, Psilocin]	–	–	–	–	upregulate ABCF1 transcription
